Experimental data: patent publication US10383841B2, “Antimicrobial and antiinflammatory composition” (Denovastella AB, priority 2005, dated 2019)

Experiments:
Format in all cases: cell-based
[1] = system: all microorganisms (five Malassezia strains, Candida albicans, Staphylococcus aureus); assay: Agar dilution method, summary over all microorganisms
Protocol: (§1) The five strains of Malassezia were CBS7019 M. Furfur, CBS 1871 M. Pachydermatis, CBS7956 M. Slooffiae, CBS7966 M. Globosa and 42132 M. Sympodialis. The Staphylococcus aureus strain and Candida albicans H29 strain (grown on mycobiotic plates). Malassezias were cultured on PO plates and kept in room temperature. Candida albicans were grown on mycobiotic plates at room temperature. Preceding the first experiment the yeasts were reinoculated and stored for five days in a 32° C. thermostat. Afterwards they were continually reinoculated every week to ensure viable strains. S. aureus were refrigerated and reinoculated on a horse blood plate and incubated for one day in 37° C. before being included in any study.
(§2) DST-TG-agar (diagnostic sensitivity test agar) with a glycerol monostearate and tween content to meet the growth requirements of the Malassezias was used. […] The agar was obtained from the Microbiological Laboratories, Sahlgrenska, Gothenburg, Sweden. When received the agar was in a liquid form requiring storage at 55° C.
(§3) The oil extract from example 1 were diluted in DMF (dimethyl formamide) producing a stock solution with 20% extract and 80% DMF. A secondary stock solution was made by diluting a decided volume of the first stem solution in PBS. Finally the solutions were mixed with the soluble agar to obtain concentrations of the extract of 1, 0.5, 0.25, 0.125, 0.0625, 0.05, 0.025 and 0.0125% in the agar. Since the ethanol extract readily dissolved with the agar no emulsifier was needed. The ethanol extract was diluted directly with the agar to obtain concentrations of the extraxt of 1, 0.5, 0.125, 0.1, 0.05, 0.0125, 0.01 and 0.005% in the agar. No precipitations or supernatants were observed.
Microbes were harvested and suspended into PBS and manually counted in Barker chambers to receive concentrations of 10^7 cells/ml for the Malassezias and 10^5 cells/ml for the Staphylococci and Candida. […]
(§4) Plates were incubated in 37° C. for approximately 3 days and then read.

Candida albicans H29 = assay: Agar dilution method, MIC
Protocol: as §1, §2, §3
(§5) Microbes were harvested and suspended into PBS and manually counted in Barker chambers to receive concentrations of 10^7 cells/ml for the Malassezias and 10^5 cells/ml for the Staphylococci and Candida. Due to poor growth of M. globosa, M. slooffiae and emulsions were modified to contain 10^8 cells/ml in the third experiment.
(§6) Using a Pasteur micropipette, plates were inoculated with 20 μl of emulsion. Plates were inoculated with either three or four microorganisms. Control plates containing only agar and plates with mirrored concentration series of DMF and ethanol were made. Additionally, all plates had paralleled controls.
as §4

M. sympodialis 42132 = assay: Agar dilution method, MIC
Protocol: as §1, §2, §3, §5, §6, §4

M. globosa CBS7966 = assay: Agar dilution method, MIC
Protocol: as §1, §2, §3, §5, §6, §4

[2] = system: M. pachydermatis CBS 1871; assay: Agar dilution method, MIC
Protocol: as §1, §2, §3, §5, §6, §4

M. furfur CBS7019 = assay: Agar dilution method, MIC
Protocol: as §1, §2, §3, §5, §6, §4

M. slooffiae CBS7956 = assay: Agar dilution method, MIC
Protocol: as §1, §2, §3, §5, §6, §4

Staphylococcus aureus = assay: Agar dilution method, MIC
Protocol: as §1, §2, §3, §5, §6, §4

[3] = Experiment II, — = no MIC up to maximum titre of that line (Cineole 0.125%, DNS in ethanol 2.5% 0.025%)
[4] = Experiment II, agar control: poor growth

Row | highest attained MIC of studied substances [1] [%] | nearly all MICs ([1]; subsequent experiment, four times the initial value) [%] | MIC (Candida albicans H29; [3]) [%] | MIC (Candida albicans H29; Experiment III) [%] | MIC (M. sympodialis 42132; [3]) [%] | MIC (M. sympodialis 42132; Experiment III) [%] | MIC (M. globosa CBS7966; [4]) [%] | MIC (M. globosa CBS7966; Experiment III, 10^8 cells/ml) [%] | MIC (M. globosa CBS7966; Experiment III, 10^8 cells/ml, listed as 1,8-cineole) [%] | MIC [2, 3] [%] | MIC ([2]; Experiment III) [%] | MIC (M. furfur CBS7019; [3]) [%] | MIC (M. furfur CBS7019; Experiment III) [%] | MIC (M. slooffiae CBS7956; [4]) [%] | MIC (M. slooffiae CBS7956; Experiment III, 10^8 cells/ml) [%] | MIC (Staphylococcus aureus; Experiment III) [%] | MIC spread ([1]; over the microorganisms) | MIC (Staphylococcus aureus; [3]) [%] | SMILES
1 | 0.5 | 0.5 | 0.125 | 0.500 | 0.0625 | 0.500 | 0.125 | 1.000 | 1.0 | 0.125 | 0.500 | 0.125 | 0.500 | 0.125 | 0.500 | 0.500 |  |  | CC12CCC(CC1)C(C)(C)O2 [Cineole, 1,8-cineole]
2 |  |  | 0.0625 |  | 0.0125 |  | 0.025 |  |  | 0.0625 |  | 0.0625 |  | 0.0125 |  |  | 0.0125-0.125% | 0.125 | C=CC1(C)CCC(C(C)C(=O)CC=C(C)C)O1 (stereo not drawn) [Davanone, davanone]
